Results from PubChem BioAssay AID1508612.

Experiment: passive permeability, PAMPA, ADME assay (AID 1508612)
Settings: pH 7.4, 30.0 min, 50.0 µM

CC(=O)NCc1ccc(-c2csc(Nc3cccc(C)c3)n2)o1
Papp: > 1000 ×10⁻⁶ cm/s

Fc1ccc(Nc2nc(-c3ccncc3)nc3ccccc23)cc1F
Papp: 376 ×10⁻⁶ cm/s

O=C(Nc1ccc(Oc2ccnc3[nH]ccc23)c(F)c1)c1cccn(-c2ccc(F)cc2)c1=O
Papp: 407 ×10⁻⁶ cm/s

NC(=O)C1CCN(c2ncnc(-c3ccc4c(c3)OCCCO4)n2)CC1
Papp: 254 ×10⁻⁶ cm/s

CCc1cccc(C)c1Nc1c(-c2ccc(N(C)C)cc2)nc2ncccn12
Papp: > 1000 ×10⁻⁶ cm/s

Cc1cc(Br)ccc1NC(=O)C(NS(=O)(=O)c1cccs1)c1ccccc1 (configuration not stated)
Papp: < 1 ×10⁻⁶ cm/s

CC(C)(C)c1cc(NC(=O)Nc2ccc(-c3cn4c(n3)sc3cc(OCCN5CCOCC5)ccc34)cc2)no1
Papp: < 1 ×10⁻⁶ cm/s

Fc1ccc(Nc2nc(C3=CCNCC3)nc3ccccc23)cc1F
Papp: > 1000 ×10⁻⁶ cm/s

O=C1CCCC2=C1C(c1[nH]ncc1Cl)N=C(Nc1nc3cc([S+](=O)([O-])N4CCCC4)ccc3o1)N2 (configuration not stated)
Papp: 47 ×10⁻⁶ cm/s

Cc1ccc(S(=O)(=O)Nc2ccc(C(=O)Nc3nc(-c4ccc(Cl)cc4)cs3)cc2)cc1
Papp: 11 ×10⁻⁶ cm/s

NC(=O)C1CCN(c2nc(-c3cccnc3)cs2)CC1
Papp: 23.2 ×10⁻⁶ cm/s

Cc1c(-c2cccc3c(CCCOc4cccc5ccccc45)c(C(=O)O)n(Cc4cccnc4)c23)c(COc2ccc(N3CCN([S+](=O)([O-])N(C)C)CC3)cc2)nn1C
Papp: 244 ×10⁻⁶ cm/s

O=C(Nc1ccccc1-c1cn2c(CN3CCNCC3)csc2n1)c1cnc2ccccc2n1
Papp: 239 ×10⁻⁶ cm/s

CC1=C(C(=O)NC2CCCC2)C(c2nn(C)cc2Cl)N=C(Nc2nc3ccccc3o2)N1 (configuration not stated)
Papp: > 1000 ×10⁻⁶ cm/s

C[C@@H]1Cc2c([nH]c3cc(Cl)c(F)cc23)[C@]2(N1)C(=O)Nc1ccc(Cl)cc12
Papp: 763 ×10⁻⁶ cm/s

CCn1c(C)c(C(C)=O)c(C)c1C(=O)Nc1cccc([S+](=O)([O-])N(C)C)c1
Papp: 405 ×10⁻⁶ cm/s

NC(=O)C1CCN(c2nc(-c3ccccc3Cl)cs2)CC1
Papp: 517 ×10⁻⁶ cm/s

O=C(Nc1ccccc1)C1CCN(c2nc(-c3ccc(Br)cc3)cs2)CC1
Papp: 48.6 ×10⁻⁶ cm/s

O=C(c1ccccc1)N1CCC(C(=O)N2CCC(N3Cc4ccccc4C3=O)CC2)CC1
Papp: 24.9 ×10⁻⁶ cm/s

Cc1cccc(C(=O)N2CCc3cc(-c4nc(NC(=O)Cc5ccc6c(c5)OCO6)sc4C)ccc32)c1
Papp: 59 ×10⁻⁶ cm/s

CCCNC(=O)Nc1ccc(Oc2ncnc3cc(OC)c(OC)cc23)cc1Cl
Papp: 362 ×10⁻⁶ cm/s

CCC(CC)C(=O)NC[C@@H]1C=C(C)[C@H](Cc2nc3c(C)cccc3[nH]2)C[C@H]1C(C)C
Papp: > 1000 ×10⁻⁶ cm/s

Cc1ccc(-c2ccc(CNc3nc(-c4ccccc4C(C)C)ncc3C)cc2)cn1
Papp: 824 ×10⁻⁶ cm/s

COc1ccc2[nH]c3c(c2c1)CCNC31CCN(S(=O)(=O)c2c(C)noc2C)CC1
Papp: 79 ×10⁻⁶ cm/s

COc1cc(-c2nc(Nc3ccc(F)c(F)c3)c3ccccc3n2)cc(OC)n1
Papp: 26.5 ×10⁻⁶ cm/s

O=C(Nc1ccc(Cl)c(S(=O)(=O)N2CCOCC2)c1)c1ccccc1
Papp: 728 ×10⁻⁶ cm/s

CCOc1cc2ncc(C#N)c(Nc3ccc(OCc4ccccn4)c(Cl)c3)c2cc1NC(=O)C=CCN(C)C
Papp: < 1 ×10⁻⁶ cm/s

Cc1nc(N2CCN(c3ccccn3)CC2)c2c(C)c(C(=O)Nc3ccc(F)cc3Cl)sc2n1
Papp: > 1000 ×10⁻⁶ cm/s

NC(=O)C1CCN(c2nnc(-c3ccc4c(c3)OCCCO4)s2)CC1
Papp: 83.8 ×10⁻⁶ cm/s

Cc1cc(NS(=O)(=O)c2ccc(NC(=O)Cc3ccc(Cl)c(F)c3)cc2)no1
Papp: 11.5 ×10⁻⁶ cm/s

C1CCc2nc3c(nc2C1)CCCC3
Papp: 257 ×10⁻⁶ cm/s

COC(=O)c1nc(-c2cccc3ccccc23)oc1OC
Papp: 939 ×10⁻⁶ cm/s

COc1cccc(CNc2ccc(S(=O)(=O)Nc3nc4ccccc4o3)cc2)c1O
Papp: 106 ×10⁻⁶ cm/s

Cc1ccnc(NC(=S)N2CCCC(Nc3cccc(C(F)(F)F)c3)C2)c1 (configuration not stated)
Papp: > 1000 ×10⁻⁶ cm/s

O=C(NCc1ccc(N2CCCC2)nc1)c1cc(Cl)ccc1O
Papp: > 1000 ×10⁻⁶ cm/s

O=[S+]([O-])(Nc1ccccc1)c1ccc(NCc2ccc(Cl)cc2O)cc1
Papp: 524 ×10⁻⁶ cm/s

OCc1ccc(-c2ccc(-c3ccc(CO)s3)o2)s1
Papp: 956 ×10⁻⁶ cm/s

N#CC1(c2ccc(NC(=O)c3cccnc3NCc3ccncc3)cc2)CCCC1
Papp: > 1000 ×10⁻⁶ cm/s

CCOc1ccc(CCNC(=O)c2cc3cccnc3n2Cc2cccc(C)n2)cc1OCC
Papp: 744 ×10⁻⁶ cm/s

COc1ccccc1OCCNCC(O)COc1cccc2[nH]c3ccccc3c12 (configuration not stated)
Papp: > 1000 ×10⁻⁶ cm/s

N#Cc1cccc(S(=O)(=O)Nc2cnccc2C(=O)Nc2nc(-c3ccccc3)cs2)c1
Papp: 189 ×10⁻⁶ cm/s

CC1(C)CC(=O)C2=C(C1)NC(Nc1nc3ccccc3o1)=NC2c1ccccc1Cl (configuration not stated)
Papp: > 1000 ×10⁻⁶ cm/s

COc1ccc2[nH]c(=O)c(-c3noc(-c4cccs4)n3)cc2c1
Papp: 351 ×10⁻⁶ cm/s

CCOC(=O)C1CCN(C(=O)C2(NC(=O)Nc3ccc(F)cc3F)CCCCC2)CC1
Papp: 177 ×10⁻⁶ cm/s

O=C(Nc1ccc(-c2nc3cc(NC(=O)c4ccccc4Cl)ccc3o2)cc1)c1ccccc1Cl
Papp: 176 ×10⁻⁶ cm/s

Cc1ccccc1C(C(=O)NC1CCCC1)N(C(=O)Cn1cnc2ccccc21)c1cccc(F)c1 (configuration not stated)
Papp: > 1000 ×10⁻⁶ cm/s

CCOc1ccc(CCNC(=O)c2cc3sccc3n2Cc2ccncc2)cc1OCC
Papp: > 1000 ×10⁻⁶ cm/s

COC(=O)c1cccc(NC(=O)c2cnc(-c3ccc(F)cc3)nc2-c2ccncc2)c1
Papp: > 1000 ×10⁻⁶ cm/s

Cc1ccnc(NC(=S)N2CCN(c3ccc(Cl)cc3Cl)CC2)c1
Papp: 868 ×10⁻⁶ cm/s

COc1cc(OC)cc(-c2csc(N3CCC(C(N)=O)CC3)n2)c1
Papp: > 1000 ×10⁻⁶ cm/s

COc1cc(C2c3cc(O)c(OC)cc3CC3C(=O)OCC32)ccc1O (configuration not stated)
Papp: 129 ×10⁻⁶ cm/s

Ic1ccccc1CNC1C2CCN(CC2)C1C(c1ccccc1)c1ccccc1 (configuration not stated)
Papp: > 1000 ×10⁻⁶ cm/s
